Data reported in paper PMC6133161, “Thiazoles with cyclopropyl fragment as antifungal, anticonvulsant, and anti-Toxoplasma gondii agents: synthesis, toxicity evaluation, and molecular docking study” (Medicinal Chemistry Research, 2018).

Tested on: all tested strains of Candida
Experiment: Antifungal screening, all strains
Assay type: cell-based
Description: The examined compounds 3a–3j were screened in vitro for antibacterial and antifungal activities using the broth microdilution method according to European Committee on Antimicrobial Susceptibility Testing (EUCAST) (EUCAST [2003]) and Clinical and Laboratory Standards Institute guidelines (CLSI [2012]) against reference strains of microorganisms from American Type Culture Collection (ATCC), including fungi belonging to yeasts (Candida albicans ATCC 2091, Candida albicans ATCC 10231, Candida parapsilosis ATCC 22019 and Candida krusei ATCC 14243).
In the study of antifungal activity of the compounds 3a–3j, 15 clinical strains of different species of yeasts from Candida species, namely C. albicans, C. dubliniensis C. famata, C. inconspicua, C. krusei, C. tropicalis, C. glabrata, C. lambica, C. kefyr, C. lusitaniae, C. parapsilosis, C. guilliermondii, C. lusitaniae, C. pulcherrima and C. sake were also used. […] After incubation, the MIC was assessed spectrophotometric as the lowest concentration of the samples showing complete fungal growth inhibition. […] MFC was determined by removing the culture using for MIC determinations from each well and spotting onto appropriate agar medium. […] The lowest compounds concentration with no visible growth observed was assessed as a fungicidal concentration. […]

SMILES: FC(F)(F)c1ccc(-c2csc(N/N=C/C3CC3)n2)cc1 [Compound 3e, (E)-2-(2-(Cyclopropylmethylene)hydrazinyl)-4-(4-(trifluoromethyl)phenyl)thiazole]
- antifungal activity: inactive
